Test [1] deals with T1, human recombinant ALR2 (Homo sapiens, UniProt P15121).
T1 construct: made in house; host or cells: E. coli JM101
Briefly: ALR2 inhibition and determination of IC50 values (NADPH oxidation at 340 nm). The class given is biochemical. The protocol: Transformed cells were selected on LB-medium containing 50 μg/ml spectinomycin and were grown overnight at 37° C. in LB broth containing M9 medium supplemented with 1% casamino acids, […] thiamine, and 0.05% trace metals. Culture was induced by isopropyl thiogalactoside (IPTG) at the final concentration of 1 mM and grown for additional 2 hours. Cells were harvested by spinning at 2000 g for 5 min at 4° C. and subjected to osmotic fractionation by suspending them in 20% sucrose, 30 mM Tris pH 7.5, 1 mM EDTA, and then cells were incubated at 23° C. for 15 min. After incubation, cells were recovered by centrifugation for 15 min at 2000 g at 4° C. Supernatant (sucrose wash) was reserved and pellet was resuspended in 1 ml of ice cold deionized water and incubated for 10 min on ice. Again cells were recovered by centrifugation at 12000 g for 5 min at 4° C. Supernatant (water wash) was reserved and pellet was resuspended in 1 ml of ice cold deionized water. Osmotic shock extract was further subjected to purification.
Osmotic shock extract was subjected to 50-80% ammonium sulphate fractionation followed by centrifugation at 10,000 g for 20 min. The pellet obtained was resuspended in 100-200 ml of 25 mM imidazole-HCl, pH 7.4. Crude lysate was applied to chromatography column packed with PBE 94 chromatofocussing resin, which had been previously equilibrated with 25 mM imidazole. Proteins were eluted from the column with 1:8 diluted polybuffer pH 7.4. Column eluant was continuously monitored by measuring absorbance at 280 nm. Fractions containing ALR2 activity were pooled and dialyzed against 10 mM potassium phosphate buffer containing 0.5 mM EDTA. Dialyzed samples were then applied to 30×2.5 cm at hydroxylapatite column equilibrated with 10 mM potassium phosphate buffer pH 7.4 containing 0.5 mM EDTA at a flow rate of 60 ml/h. The enzyme was eluted with a linear gradient 10-300 mM potassium phosphate buffer, pH 7.0. Fractions from each purification step are subjected to SDS-PAGE. Fractions containing ALR2 activity were pooled, concentrated and stored at −20° C. until further inhibition studies.
The assay mixture in 1 ml contained 50 mM potassium phosphate buffer, pH 6.2, 0.2 mM lithium sulfate, 5 mM 2-mercaptoethanol, 1 mM DL-glyceraldehyde, 0.1 mM NADPH and recombinant ALR2. Appropriate blanks were employed for corrections. The assay mixture was incubated at 37° C. and initiated by the addition of NADPH at 37° C. The change in the absorbance at 340 nm due to NADPH oxidation was monitored in a Lamda35 spectrophotometer (Perkin-Elmer, Shelton, USA).
For inhibition studies concentrated stocks of compounds prepared in dimethyl sulfoxide were used and the final concentration of DMSO was not more than 1% of the assay volume. Various concentrations of the above mentioned analogues were added to assay mixture of ALR2 and incubated for 5 min before initiating the reaction by NADPH as described above. The percentage inhibition was calculated considering the activity in the absence of compound as 100%. The IC50 values were determined by nonlinear regression analysis of the plot of percent inhibition versus log compound concentration.

In test [2] the test system is human RBC. Briefly: Inhibition of sorbitol formation in RBC under high glucose conditions (ex vivo). The format is cell-based. The conditions noted are these: human RBC incubated under high glucose condition (55 mM), 3 hrs. How it is done: In vitro incubation of RBC: Five mL blood was collected from healthy male volunteers on overnight fasting in heparinized tubes. Red blood cells were separated by centrifugation (3000 rpm/min about 30 min) and washed three times with isotonic saline at 4° C. Washed RBC were suspended in Kreb's-ringer bicarbonate buffer, pH 7.4 (pre-equilibrated with 5% CO2) and incubated at 37° C. in presence of 5% CO2 for 3 hrs under normal (5.5 mM) and high glucose (55 mM) conditions in duplicates. The effect of compounds on sorbitol accumulation was evaluated by incubating the RBC with different concentrations of compounds.
Estimation of sorbitol in RBC: At the end of incubation period, RBC was homogenized in 9 volumes of 0.8 M perchloric acid. The homogenate was centrifuged at 5,000 g at 4° C. for 10 min and the pH of the supernatant was adjusted to 3.5 with 0.5 M potassium carbonate. The sorbitol content of the supernatant was measured by fluorometric method using a spectrofluorometer (Jasco-FP-6500).

[3] abbreviates: human recombinant ALR2, read-out: IC50 value, ALR2 inhibition.
Where [4] appears, read: recombinant human ALR2 in vitro, average of four experimental values, read-out: IC-50.

Like-named read-outs stand apart in the source and are kept apart here.

For `COc1cc(C(CC(=O)N2CCC=CC2=O)c2c[nH]c3ccc(Br)cc23)cc(OC)c1OC` (racemic) [2g, 1-(3-(5-bromo-1H-indol-3-yl)-3-(3,4,5-trimethoxyphenyl)propanoyl)-5,6-dihydropyridin-2(1H)-one], the IC50 in test [1] (SAR studies text, read-out: IC50, in-vitro aldose reductase inhibition) is 60 µM; in test [1] (setting [3]), 15 µM.

Turning to `COc1ccc2[nH]cc(C(CC(=O)N3CCC=CC3=O)c3cc(OC)c(OC)c(OC)c3)c2c1` (stereo not shown) [2j, 1-(3-(5-methoxy-1H-indol-3-yl)-3-(3,4,5-trimethoxyphenyl)propanoyl)-5,6-dihydropyridin-2(M)-one], the “% inhibition of sorbitol formation” value in test [2] is listed as 64.9%. Besides, in test [1] (setting [3]), the IC50 worked out at 8 µM. With `COc1cc(C(CC(=O)N2CCC(c3cn(Cc4ccccc4)c4ccccc34)CC2=O)c2cn(Cc3ccccc3)c3ccccc23)cc(OC)c1OC` (stereo not shown) [3c, 1-(3-(1-benzyl-1H-indol-3-yl)-3-(3,4,5-trimethoxyphenyl)propanoyl)-4-(1-benzyl-1H-indol-3-yl)piperidin-2-one], the “% inhibition of sorbitol formation” value in test [2] worked out at 58.5%. Moreover, the IC50 in test [1] (setting [3]) was 4 µM. Regarding `COc1cc(C(CC(=O)N2CCC(c3c(C)[nH]c4ccccc34)CC2=O)c2c(C)[nH]c3ccccc23)cc(OC)c1OC` (stereo not shown) [3d, 1-(3-(3,4,5-trimethoxyphenyl)-3-(2-methyl-1H-indol-3-yl)propanoyl)-4-(2-methyl-1H-indol-3-yl)piperidin-2-one], the IC50 in test [1] (setting [4]) turned out to be 40 µM. For `COc1cc(C(CC(=O)N2CCC(c3c(-c4ccccc4)[nH]c4ccccc34)CC2=O)c2c(-c3ccccc3)[nH]c3ccccc23)cc(OC)c1OC` (stereo not shown) [3e, 1-(3-(3,4,5-trimethoxyphenyl)-3-(2-phenyl-1H-indol-3-yl)propanoyl)-4-(2-phenyl-1H-indol-3-yl)piperidin-2-one], in test [2], the “% inhibition of sorbitol formation” value is reported as 68%. For the same compound, the IC50 in test [1] (setting [4]) came out at 4 µM. As for `COc1cc(/C=C/C(=O)N2CCC=CC2=O)cc(OC)c1OC` [Piplartine, 5,6-dihydro-1-((E)-3-(3,4,5-trimethoxyphenyl)acryloyl)pyridin-2(1H)-one], the IC50 in test [1] (setting [3]) was determined as 160 µM.

As for `COc1cc(C(CC(=O)O)c2c(C)[nH]c3ccccc23)cc(OC)c1OC` (stereo not shown) [compound 4, 3-(3,4,5-trimethoxyphenyl)-3-(2-methyl-1H-indol-3-yl)propanoic acid], the “ALR2 inhibitory activity (in words)” value in test [1] was “inactive”. On to `COC(=O)/C=C/c1cc(OC)c(OC)c(OC)c1` [compound 5, (E)-methyl 3-(3,4,5-trimethoxyphenyl)acrylate], for which the “ALR2 inhibitory activity (in words)” value in test [1] was “inactive”. Regarding pipernal, the IC50 in test [1] (setting [3]) came out at 310 µM.

Source of the values: patent US20120245357A1, “ALR2 INHIBITORS AND THEIR SYNTHESIS FROM A NATURAL SOURCE” (COUNCIL OF SCIENTIFIC & INDUSTRIAL RESEARCH, priority 2010, published 2012).
